Experimental data from patent publication US12091425B2 (AMGEN INC., priority 2016, dated 2024).

What was measured:
[1] = test system: OPM-2 human multiple myeloma cell line; assay: Cell Viability Assay (OPM-2 10 FBS); type: cell-based; conditions: OPM-2 cells, CellTiter-Glo
Procedure, shortened: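 IC50 from 4-parameter logistic fit of CellTiter-Glo luminescence. 3000 cells/well, 10% FBS medium, serial compound dilutions, 16 h, 37 °C/5% CO2; read 25 min post-reagent.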

[2] = biological target: T1, Mcl-1/Bim interaction, recombinant human Mcl-1 (171-327) (Homo sapiens, UniProt Q07820); assay: Cell free Mcl-1: Bim Affinity Assay (Mcl-1 HTRF); type: binding
T1 construct: made in house
Procedure, shortened: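 Compounds were mixed with the protein and a biotinylated Bim peptide spanning human residues 51-76. Plates were left overnight, then TR-FRET signal was measured. A four-parameter sigmoidal model applied to duplicate competition data gave IC50.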

[3] = TR-FRET, 0.1 nM Mcl-1 (171-327), 0.05 nM biotin-Bim (51-76)
[4] = cell free Mcl-1:Bim TR-FRET, recombinant human Mcl-1 (171-327)
[5] = Homo sapiens, OPM-2, 16 h, 16 h

T1 sequence (Q07820 171-327): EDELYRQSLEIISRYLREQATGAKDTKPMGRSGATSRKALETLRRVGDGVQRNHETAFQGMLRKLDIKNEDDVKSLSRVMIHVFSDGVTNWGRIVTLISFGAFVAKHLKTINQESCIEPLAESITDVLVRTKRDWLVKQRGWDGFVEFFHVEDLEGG

IC50 [2, 3] [nM]	IC50 [1, 5] [nM]	Structure (SMILES)	IC50 ([1]; 16 h) [nM]	IC50 [2, 4] [nM]	also measured
–	–	CO[C@@H]1/C=C/[C@H](O)[C@@H]2CC[C@H]2CN2C[C@@]3(CCCc4cc(Cl)ccc43)COc3ccc(cc32)C(=O)NS(=O)(=O)[C@@H](C)C1 (single isomer, unassigned) [Example 490]	7960	2.09	–
1.27	751	Cc1noc(C)c1CO[C@H]1/C=C/CC[C@@H](C)S(=O)(=O)NC(=O)c2ccc3c(c2)N(C[C@@H]2CC[C@H]21)C[C@@]1(CCCc2cc(Cl)ccc21)CO3 [Example 409, (1S,3′R,6′R,7′S,8′E,12′R)-6-chloro-7′-((3,5-dimethyl-4-isoxazolyl)methoxy)-12′-methyl-3,4-dihydro-2H,15′H-spiro[naphthalene-1,22′-[20]oxa[13]thia[1,14]diazatetracyclo[14.7.2.0^3,6.0^19,24]pentacosa [8,16,18,24]tetraen]-15′-one 13′,13′-dioxide]	–	–	–
0.686	–	CC[C@@H](O[C@H]1/C=C/CC[C@@H](C)S(=O)(=O)NC(=O)c2ccc3c(c2)N(C[C@@H]2CC[C@H]21)C[C@@]1(CCCc2cc(Cl)ccc21)CO3)C(=O)N(C)C (single isomer, unassigned) [Example 421]	674	–	–
–	3550	CC1C(C2CC2)CC=CC(O)C2CCC2CN2CC3(CCCc4cc(Cl)ccc43)COc3ccc(cc32)C(=O)NS1(=O)=O (single isomer, unassigned) [Example 677]	–	9.57	–
0.185	220	C[C@@H]1[C@@H](C)C/C=C/[C@H](OCC(=O)N2CCOCC2)[C@@H]2CC[C@H]2CN2C[C@@]3(CCCc4cc(Cl)ccc43)COc3ccc(cc32)C(=O)NS1(=O)=O [Example 313, (1S,3′R,6′R,7′S,8′E,11′S,12′R)-6-chloro-11′,12′-dimethyl-7′-(2-(4-morpholinyl)-2-oxoethoxy)-3,4-dihydro-2H,15′H-spiro[naphthalene-1,22′-[20]oxa[13]thia[1,14]diazatetracyclo[14.7.2.0^3,6.0^19,24]pentacos [8,16,18,24]tetraen]-15′-one 13′,13′-dioxide]	–	–	–
1.88	1910	CCN1[C@@H](C)CCC[C@H](O)[C@@H]2CC[C@H]2CN2C[C@@]3(CCCc4cc(Cl)ccc43)COc3ccc(cc32)C(=O)NS1(=O)=O [Example 85, (1S,3′R,6′R,7′S,11′S)-6-chloro-12′-ethyl-7′-hydroxy-11′-methyl-3,4-dihydro-2H,15′H-spiro[naphthalene-1,22′-[20]oxa[13]thia[1,12,14]triazatetracyclo[14.7.2.0^3,6.0^19,24]pentacosa[16,18,24]trien]-15′-one 13′,13′-dioxide]	–	–	–
–	–	CO[C@H]1C/C=C/[C@H](OCCN2CCOCC2)[C@@H]2CC[C@H]2CN2C[C@@]3(CCCc4cc(Cl)ccc43)COc3ccc(cc32)C(=O)NS(=O)(=O)[C@@H]1C[C@@H]1CCCO1 (single isomer, unassigned) [Example 645]	125	0.589	–
–	11200	CC[C@@H]1C/C=C/[C@H](OCC(=O)O)[C@@H]2CC[C@H]2CN2C[C@@]3(CCCc4cc(Cl)ccc43)COc3ccc(cc32)C(=O)NS1(=O)=O [Example 764, (((1S,3′R,6′R,7′S,8′E,11′R)-6-chloro-11′-ethyl-12′,12′-dioxido-14′-oxo-3,4-dihydro-2H-spiro[naphthalene-1,21′-[19]oxa[12]thia[1,13]diazatetracyclo[13.7.2.0^3,6.0^18,23]tetracosa[8,15,17,23]tetraen]-7′-yl)oxy)acetic Acid]	–	0.113	–
–	257	C[C@@H]1[C@@H](C)C/C=C/[C@H](OCCN2CC3(COC3)C2)[C@@H]2CC[C@H]2CN2C[C@@]3(CCCc4cc(Cl)ccc43)COc3ccc(cc32)C(=O)NS1(=O)=O [Example 518, (1S,3′R,6′R,7′S,8′E,11′S,12′R)-6-chloro-11′,12′-dimethyl-7′-(2-(2-oxa-6-azaspiro[3.3]hept-6-yl)ethoxy)-3,4-dihydro-2H,15′H-spiro[naphthalene-1,22′-[20]oxa[13]thia[1,14]diazatetracyclo[14.7.2.0^3,6.0^19,24]pentacosa [8,16,18,24]tetraen]-15′-one 13′,13′-dioxide]	–	0.49	–
–	–	COC(=O)CC[C@@H]1CC/C=C/[C@H](O)[C@@H]2CC[C@H]2CN2C[C@@]3(CCCc4cc(Cl)ccc43)COc3ccc(cc32)C(=O)NS1(=O)=O [Example 616]	482	0.178	–
0.34	254	CO[C@H]1/C=C/C[C@H](CO)[C@@H](C)S(=O)(=O)NC(=O)c2ccc3c(c2)N(C[C@@H]2CC[C@H]21)C[C@@]1(CCCc2cc(Cl)ccc21)CO3 [Example 1, (1S,3′R,6′R,7′S,8′E,11′R,12′R)-6-chloro-11′-(hydroxymethyl)-7′-methoxy-12′-methyl-3,4-dihydro-2H,15′H-spiro[naphthalene-1,22′-[20]oxa[13]thia[1,14]diazatetracyclo[14.7.2.0^3,6.0^19,24]pentacosa [8,16,18,24]tetraen]-15′-one 13′,13′-dioxide]	–	–	–
0.299	262	C=C1[C@@H](C)C/C=C/[C@H](O)[C@@H]2CC[C@H]2CN2C[C@@]3(CCCc4cc(Cl)ccc43)COc3ccc(cc32)C(=O)NS1(=O)=O (single isomer, unassigned) [Example 468]	–	–	–
1.83	–	C[C@@]12C/C=C/[C@H](O)[C@@H]3CC[C@H]3CN3C[C@@]4(CCCc5cc(Cl)ccc54)COc4ccc(cc43)C(=O)NS(=O)(=O)[C@H]1CCC2 (single isomer, unassigned) [Example 131]	1820	–	–
–	–	CO[C@H]1/C=C/C[C@H]2C[C@@H]2S(=O)(=O)NC(=O)c2ccc3c(c2)N(C[C@@H]2CC[C@H]21)C[C@@]1(CCCc2cc(Cl)ccc21)CO3 (single isomer, unassigned) [Example 804]	377	0.658	–
2	2750	CC12CC=CC(O)C3CCC3CN3CC4(CCCc5cc(Cl)ccc54)COc4ccc(cc43)C(=O)NS(=O)(=O)C1CCC2 (single isomer, unassigned) [Example 133]	–	–	–
–	–	CO[C@H]1/C=C/CCC(CCC(=O)N(C)C)S(=O)(=O)NC(=O)c2ccc3c(c2)N(C[C@@H]2CC[C@H]21)C[C@@]1(CCCc2cc(Cl)ccc21)CO3 (single isomer, unassigned) [Example 622]	257	0.224	–
–	891	CC(C)(O)CC1CCC=CC(O)C2CCC2CN2CC3(CCCc4cc(Cl)ccc43)COc3ccc(cc32)C(=O)NS1(=O)=O (single isomer, unassigned) [Example 558]	–	0.284	–
0.483	–	CO[C@H]1/C=C/[C@H](C)C[C@@H](C)S(=O)(=O)NC(=O)c2ccc3c(c2)N(C[C@@H]2CC[C@H]21)C[C@@]1(CCCc2cc(Cl)ccc21)CO3 [Example 1016, (1S,3′R,6′R,7′S,8′E,10′R,12′R)-6-chloro-7′-methoxy-10′,12′-dimethyl-3,4-dihydro-2H,15′H-spiro[naphthalene-1,22′-[20]oxa[13]thia[1,14]diazatetracyclo[14.7.2.0^3,6.0^19,24]pentacosa [8,16,18,24]tetraen]-15′-one 13′,13′-dioxide]	–	–	IC50 ([1]; Homo sapiens, OPM-2, 16 h, 16 h incubation): 291 nM
–	–	COC[C@@H](O)C[C@@H]1CC/C=C/[C@H](OC)[C@@H]2CC[C@H]2CN2C[C@@]3(CCCc4cc(Cl)ccc43)COc3ccc(cc32)C(=O)NS1(=O)=O (single isomer, unassigned) [Example 659]	10900	3.37	–
0.603	2520	COC1C=CC(CO)CC(C)S(=O)(=O)NC(=O)c2ccc3c(c2)N(CC2CCC21)CC1(CCCc2cc(Cl)ccc21)CO3 (single isomer, unassigned) [Example 128]	–	–	–

Structure (SMILES)	IC50 [2, 3] [nM]	IC50 [1, 5] [nM]	IC50 ([1]; 16 h) [nM]	IC50 [2, 4] [nM]	also measured
CO[C@@H]1C[C@H]2C/C=C/[C@H](OC)[C@@H]3CC[C@H]3CN3C[C@@]4(CCCc5cc(Cl)ccc54)COc4ccc(cc43)C(=O)NS(=O)(=O)[C@@H]2C1 (single isomer, unassigned) [Example 337]	0.705	–	383	–	–
COCC(C)OC1C=CCCC(C)S(=O)(=O)NC(=O)c2ccc3c(c2)N(CC2CCC21)CC1(CCCc2cc(Cl)ccc21)CO3 (mixture of isomers) [Example 955]	1.23	–	–	–	IC50 ([1]; 16 h incubation): 567 nM
O=C1NS(=O)(=O)[C@H](Cc2nccs2)CC/C=C/[C@H](O)[C@@H]2CC[C@H]2CN2C[C@@]3(CCCc4cc(Cl)ccc43)COc3ccc1cc32 (single isomer, unassigned) [Example 373]	0.731	–	404	–	–
COCC[C@@H]1[C@@H](C)C/C=C\[C@H](O)[C@@H]2CC[C@H]2CN2C[C@@]3(CCCc4cc(Cl)ccc43)COc3ccc(cc32)C(=O)NS1(=O)=O (single isomer, unassigned) [Example 394]	1.26	–	1250	–	–
O=C1NS(=O)(=O)[C@H]2CCC[C@H](/C=C/[C@H](O)[C@@H]3CC[C@H]3CN3C[C@@]4(CCCc5cc(Cl)ccc54)COc4ccc1cc43)C2 (single isomer, unassigned) [Example 104]	40	–	13000	–	–
O=C1NS(=O)(=O)[C@H]2CCCC[C@@H]2CCC[C@H](O)[C@@H]2CC[C@H]2CN2C[C@@]3(CCCc4cc(Cl)ccc43)COc3ccc1cc32 (single isomer, unassigned) [Example 334]	6.92	–	2660	–	–
CO[C@H]1/C=C/C[C@@H]2COCC[C@H]2S(=O)(=O)NC(=O)c2ccc3c(c2)N(C[C@@H]2CC[C@H]21)C[C@@]1(CCCc2cc(Cl)ccc21)CO3 (single isomer, unassigned) [Example 320]	0.329	–	342	–	–
COC[C@@H]1C[C@@H](C)CC[C@H](O)[C@@H]2CC[C@H]2CN2C[C@@]3(CCCc4cc(Cl)ccc43)COc3ccc(cc32)C(=O)NS1(=O)=O (single isomer, unassigned) [Example 1037]	0.831	–	–	–	IC50 ([1]; 16 h incubation): 744 nM
